The target of one experiment is T1, human thrombin (Homo sapiens, UniProt P00734).
T1 construct: human thrombin; purchased Sigma Chemical Co., St. Louis, U.S.A
The experiment in a line: Determination of Ki, inhibition of reaction of thrombin with substrate S-2238. In kind it is biochemical. How it is done:
(§1) The inhibition of reaction of the enzymes (human thrombin; Sigma Chemical Co., St. Louis, U.S.A. and human factor Xa; KabiVitrum AB, Stockholm) with the substrates (S-2238 resp. S-2222, Kabi Diagnostica, Stockholm) was determined at three different substrate concentrations from 0.3 to 2 km. Six different inhibitor concentrations, which give inhibition from 40% to 90%, were incubated with the enzyme for 30 seconds at 37° C. The buffer composition, ionic strength, pH and enzyme concentration were the same as those recommended in the booklets from Kabi Diagnostica. The initial reaction velocity (ΔA/min) was measured on a recorder at 405 nm. Ki values were than graphically determined from Dixon and Lineweaver-Burk diagrams.
Ki of thrombin is given in mol/l.

In the next experiment the target is T2, human factor Xa (Homo sapiens, UniProt P00742).
T2 construct: human factor Xa; purchased KabiVitrum AB, Stockholm
T2 sequence (P00742 235-488 limits assumed): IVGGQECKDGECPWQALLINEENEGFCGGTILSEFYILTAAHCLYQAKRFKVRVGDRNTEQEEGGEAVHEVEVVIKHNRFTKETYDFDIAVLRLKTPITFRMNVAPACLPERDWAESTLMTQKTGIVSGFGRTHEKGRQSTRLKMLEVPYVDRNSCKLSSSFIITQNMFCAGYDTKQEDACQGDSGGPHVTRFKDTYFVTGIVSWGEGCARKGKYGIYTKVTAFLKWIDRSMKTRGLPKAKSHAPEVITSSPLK
T2 sequence (P00742 41-179 partner limits assumed): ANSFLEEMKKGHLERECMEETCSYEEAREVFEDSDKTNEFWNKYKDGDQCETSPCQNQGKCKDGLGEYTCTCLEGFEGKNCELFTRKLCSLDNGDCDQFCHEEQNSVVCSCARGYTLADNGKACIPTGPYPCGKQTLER
Kind of experiment: Determination of Ki, inhibition of reaction of factor Xa with substrate S-2222. In kind it is biochemical. Particulars: Table 3; read-out: Ki FXa (converted). The protocol:
as §1

For experiment [1], the system named is thrombin. Kind of experiment: Thrombin time, plasma (prolongation of coagulation time initiated by thrombin). It is filed as biochemical, dog. Particulars: for "Thrombin time" Concentration required to prolong the coagulation time by a factor of 2: Table 3; for Thrombin time, plasma: concentration of the inhibitor which doubles the thrombin time of dog plasma: Table 1, 37° C., 30 seconds incubation. How it is done: A volume of 200 μl citrate-plasma was heated for 1 minute at 37° C. The coagulation was started by adding 10 μl fresh thrombin solution (about 5 NIH U/ml) and the coagulation time was registrated by a fibrinometer. At the inhibition experiments the plasma was incubated for 30 seconds with 10 μl inhibitor solution at different concentrations before the thrombin solutions was added.
"Thrombin time" designates the concentration (mol/l) of the inhibitor, which doubles the thrombin time of dog plasma. The Arg derivates have been synthesized according to ref. 1 and 2.Tos-Gph-OMe has been synthesized according to ref. 6.

The next experiment has as its system trypsin. The conditions noted are these: literature; cited from earlier work.
Experiment [2] relates to thrombin. Particulars: literature; cited from earlier work.
Experiment [3] deals with thrombin. The conditions noted are these: literature; cited from earlier work. The source holds these as a separate data set.

pKi: −log10 of the molar value. Structures can show the parent of a compound that is named as a salt.

The term pKi denotes the negative decadic logarithm of the Ki, by convention in mol/L. Lower therefore signals a high Ki. By Ki is commonly meant a measure of affinity in units of concentration, obtained from inhibition or displacement. Turning to `CC1CCN(C(=O)[C@H](Cc2ccc(NC(=N)N)cc2)NS(=O)(=O)c2ccc3ccccc3c2)CC1` [ii, N^α -(Naphthalene-2-sulfonyl)-p-guanidino-Phe-4-methyl-piperidide hydrochloride], the pKi on human thrombin (Table 2, Gph-derivatives) is 6.51. Besides, the inhibitory constant (Ki) at human factor Xa was 20 µM. For the same compound, the “"Thrombin time" Concentration required to prolong the coagulation time by a factor of 2” value (“"Thrombin time" Concentration required” below) in the experiment with thrombin [1] is recorded as 1.10^-6 mol/l.
Turning to `CCCCN(C)C(=O)[C@H](Cc1ccc(NC(=N)N)cc1)NS(=O)(=O)c1cccc2c(N(C)C)cccc12` [ix], the pKi at human thrombin (Table 3) is 6.46. Moreover, the inhibition constant (Ki) on human factor Xa was 130 µM. In the experiment with thrombin [1], the “"Thrombin time" Concentration required” value is given as 2.5.10^-7 mol/l.
Regarding `N=C(N)Nc1ccc(C[C@H](NS(=O)(=O)c2ccc3ccccc3c2)C(=O)N2CCOCC2)cc1` [iv, β-Naphthalenesulfonyl--Gph--morpholide], the pKi on human thrombin (Table 2, Gph-derivatives) was 6.74. In addition, the Ki at human factor Xa is 50 µM. Also, the “"Thrombin time" Concentration required” value with thrombin [1] was 8.10^-7 mol/l.
Regarding `CCOC(=O)[C@H](Cc1ccc(NC(=N)N)cc1)NC(=O)c1ccccc1` [Bz-Gph-OEt], in the experiment with trypsin, the substrate for trypsin result is “comparable with Tos-Gph-OMe and Tos-Arg-OMe (TAME)”.
`Cc1ccc(S(=O)(=O)N[C@@H](CCCNC(=N)N)C(=O)N2CCCCC2)cc1` [Tos--Arg--piperidide, reference compound] showed a pKi on human thrombin (Table 1) of 5.30.
`CN(C)c1cccc2c(S(=O)(=O)N[C@@H](Cc3ccc(NC(=N)N)cc3)C(=O)N3CCCCCC3)cccc12` [vi]: the pKi at human thrombin (Table 3) is 7.10. In addition, the Ki on human factor Xa was 300 µM.
The compound `CCCC1CCN(C(=O)[C@H](Cc2ccc(NC(=N)N)cc2)NS(=O)(=O)c2cccc3c(N(C)C)cccc23)CC1` [vii] had a pKi on human thrombin (Table 3) of 6.64. Moreover, the Ki on human factor Xa was 200 µM. Further, the “"Thrombin time" Concentration required” value in the experiment with thrombin [1] is given as 1.5.10^-5 mol/l.
In turn, `CN1CCN(C(=O)[C@H](Cc2ccc(NC(=N)N)cc2)NS(=O)(=O)c2cccc3c(N(C)C)cccc23)CC1` [viii] showed a pKi at human thrombin (Table 3) of 6.15. Also, on human factor Xa, the Ki is 300 µM. Further, the “"Thrombin time" Concentration required” value in the experiment with thrombin [1] is 1.6.10^-7 mol/l.
In the case of `CN(C)c1cccc2c(S(=O)(=O)N[C@@H](Cc3ccc(NC(=N)N)cc3)C(=O)N3CCCCC3)cccc12` [i, N^α -Dansyl-p-guanidino-Phe-piperidide hydrochloride], the pKi at human thrombin (Table 3) was 7.05. The Ki at human factor Xa is 250 µM. Moreover, in the experiment on thrombin [1], the “Thrombin time, plasma: concentration of the inhibitor which doubles the thrombin time of dog plasma” value is reported as 6.10^-7 mol/l and the “"Thrombin time" Concentration required” value is recorded as 6.10^-7 mol/l.
`Cc1ccc(S(=O)(=O)N[C@@H](Cc2ccc(NC(=N)N)cc2)C(=O)N2CCCCC2)cc1` [v, Tos--Gph--piperidide] gave a pKi on human thrombin (Table 2, Gph-derivatives) of 6.10. Moreover, the inhibition constant (Ki) on human factor Xa is 250 µM. In addition, in the experiment on thrombin [1], the “Thrombin time, plasma: concentration of the inhibitor which doubles the thrombin time of dog plasma” value was 1.10^-6 mol/l and the “"Thrombin time" Concentration required” value was 1.10^-6 mol/l.
With `CCOC(=O)[C@H](CCCNC(=N)N)NC(=O)c1ccccc1` [BAEE, Bz-Arg-OEt], the “substrate for / split by thrombin” value in the experiment on thrombin [2] is on record as “can be split by thrombin”.
As to `COC(=O)[C@H](Cc1ccc(NC(=N)N)cc1)NS(=O)(=O)c1ccc(C)cc1` [Tos--Gph--OMe], the pKi at human thrombin (Table 1) was 5.12. Also, in the experiment with thrombin [2], the “substrate for / split by thrombin” value is “bad substrate for thrombin”. Moreover, the substrate for trypsin entry in the experiment with trypsin was “good substrate for trypsin”. Also, the inhibition of thrombin result in the experiment on thrombin [3] was “ability to inhibit the amidase- and esterase activity of thrombin”.
At human thrombin (Table 1), `CN(C)c1cccc2c(S(=O)(=O)N[C@@H](CCCNC(=N)N)C(=O)N3CCCCC3)cccc12` [Dansyl--Arg--piperidide, reference compound] showed a pKi of 7.05. In addition, the “Thrombin time, plasma: concentration of the inhibitor which doubles the thrombin time of dog plasma” value in the experiment on thrombin [1] is on record as 2.10^-6 mol/l.
In the case of `CC1CCN(C(=O)[C@H](Cc2ccc(NC(=N)N)cc2)NS(=O)(=O)c2cccc3ccccc23)CC1` [iii, α-Naphthalenesulfonyl--Gph--4-methylpiperidide], the pKi at human thrombin (Table 2, Gph-derivatives) was 6.46. Moreover, the Ki at human factor Xa is 370 µM.

(Values after patent publication US4537896A, “Thrombin inhibiting arylsulfonyl guanidinophenylalanine amides” (KabiVitrum AB, priority 1982, dated 1985).)
